Test system: 192522-019-R-J2-PDC complex tumor spheroid viability
Test: Anticancer human tumor 192522-019-R-J2-PDC patient-derived colon adenocarcinoma cell line growth inhibition [POLQ]
Details: for IC50: curve of first compound; for viability, T/C: stronger effect = lower value
Summary of the method: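 Patient-derived tumour cells were co-cultured with HUVEC and mesenchymal stem cells as multicellular spheroids at 37 °C. They were treated with POLQ inhibitors (novobiocin, ART-558, RP6685) alone or combined with other agents. Top concentrations were at or near clinical Cmax (otherwise 10 microM; SN-38 at 1 microM), decreasing in half-log steps.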

[1] = second compound 0.0316 µM, first compound 0.0316 µM
[2] = second compound 0.0316 µM, first compound 0.1 µM
[3] = second compound 0.0316 µM, first compound 0.316 µM
[4] = second compound 0.0316 µM, first compound 1 µM
[5] = second compound 0.1 µM, first compound 0.0316 µM
[6] = second compound 0.1 µM, first compound 0.1 µM
[7] = second compound 0.1 µM, first compound 0.316 µM
[8] = second compound 0.1 µM, first compound 1 µM
[9] = second compound 0.316 µM, first compound 0.0316 µM
[10] = second compound 0.316 µM, first compound 0.1 µM
[11] = second compound 0.316 µM, first compound 0.316 µM
[12] = second compound 0.316 µM, first compound 1 µM
[13] = second compound 1 µM, first compound 0.0316 µM
[14] = second compound 1 µM, first compound 0.1 µM
[15] = second compound 1 µM, first compound 0.316 µM
[16] = second compound 1 µM, first compound 1 µM
[17] = second compound 3.16 µM, first compound 0.0316 µM
[18] = second compound 3.16 µM, first compound 0.1 µM
[19] = second compound 3.16 µM, first compound 0.316 µM
[20] = second compound 3.16 µM, first compound 1 µM
[21] = second compound 10 µM, first compound 0.0316 µM
[22] = second compound 10 µM, first compound 0.1 µM
[23] = second compound 10 µM, first compound 0.316 µM
[24] = second compound 10 µM, first compound 1 µM
[25] = second compound 0.0316 µM, first compound 3.16 µM
[26] = second compound 0.0316 µM, first compound 10 µM
[27] = second compound 0.1 µM, first compound 3.16 µM
[28] = second compound 0.1 µM, first compound 10 µM
[29] = second compound 0.316 µM, first compound 3.16 µM
[30] = second compound 0.316 µM, first compound 10 µM
[31] = second compound 1 µM, first compound 3.16 µM
[32] = second compound 1 µM, first compound 10 µM
[33] = second compound 3.16 µM, first compound 3.16 µM
[34] = second compound 3.16 µM, first compound 10 µM
[35] = second compound 10 µM, first compound 3.16 µM
[36] = second compound 10 µM, first compound 10 µM
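Further: spheroids exposed to drugs for seven days before reading.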
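Wherever viability, T/C is given: 100% = DMSO vehicle control viability in luminescence.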

CCc1c2c(nc3ccc(O)cc13)-c1cc3c(c(=O)n1C2)COC(=O)[C@]3(O)CC + COC1C(OC(N)=O)C(O)C(Oc2ccc3c(O)c(NC(=O)c4ccc(O)c(CC=C(C)C)c4)c(=O)oc3c2C)OC1(C)C
IC50 (second compound 0.0316 µM): 0.0254 µM | IC50 (second compound 0.1 µM): 0.0515 µM | IC50 (second compound 0.316 µM): 0.0419 µM | IC50 (second compound 1 µM): 0.0339 µM | IC50 (second compound 3.16 µM): 0.0422 µM | IC50 (second compound 10 µM): 0.0434 µM | viability, T/C (second compound 0.0316 µM, first compound 0.00316 µM): 96.3% | viability, T/C (second compound 0.0316 µM, first compound 0.01 µM): 52.5% | viability, T/C [1]: 52.3% | viability, T/C [2]: 47% | viability, T/C [3]: 35.1% | viability, T/C [4]: 23.8% | viability, T/C (second compound 0.1 µM, first compound 0.00316 µM): 84% | viability, T/C (second compound 0.1 µM, first compound 0.01 µM): 59% | viability, T/C [5]: 55.8% | viability, T/C [6]: 49.7% | viability, T/C [7]: 31.7% | viability, T/C [8]: 27.5% | viability, T/C (second compound 0.316 µM, first compound 0.00316 µM): 83.7% | viability, T/C (second compound 0.316 µM, first compound 0.01 µM): 56% | viability, T/C [9]: 53.7% | viability, T/C [10]: 47.5% | viability, T/C [11]: 31.4% | viability, T/C [12]: 25.8% | viability, T/C (second compound 1 µM, first compound 0.00316 µM): 82% | viability, T/C (second compound 1 µM, first compound 0.01 µM): 52.3% | viability, T/C [13]: 57.9% | viability, T/C [14]: 43.3% | viability, T/C [15]: 30.1% | viability, T/C [16]: 27.9% | viability, T/C (second compound 3.16 µM, first compound 0.00316 µM): 86.7% | viability, T/C (second compound 3.16 µM, first compound 0.01 µM): 57.3% | viability, T/C [17]: 57.9% | viability, T/C [18]: 40.3% | viability, T/C [19]: 35.9% | viability, T/C [20]: 23.8% | viability, T/C (second compound 10 µM, first compound 0.00316 µM): 83.3% | viability, T/C (second compound 10 µM, first compound 0.01 µM): 54.6% | viability, T/C [21]: 59.4% | viability, T/C [22]: 41.9% | viability, T/C [23]: 35.5% | viability, T/C [24]: 27.8%

CC1COCCN1c1cc(C2(O)CC3CCC(C2)O3)c2cnn(-c3ccn[nH]3)c2n1 (stereo unspecified) + Cc1cccc(N(C)C(=O)C2C(O)CCN2c2nc(C)cc(C(F)(F)F)c2C#N)c1
IC50 (second compound 0.0316 µM): 0.252 µM | IC50 (second compound 0.1 µM): 0.256 µM | IC50 (second compound 0.316 µM): 0.298 µM | IC50 (second compound 1 µM): 0.467 µM | IC50 (second compound 3.16 µM): 0.548 µM | IC50 (second compound 10 µM): 0.291 µM | viability, T/C [1]: 117% | viability, T/C [2]: 70.1% | viability, T/C [3]: 47.8% | viability, T/C [4]: 29.2% | viability, T/C [25]: 43.7% | viability, T/C [26]: 46.3% | viability, T/C [5]: 95.8% | viability, T/C [6]: 73.1% | viability, T/C [7]: 42% | viability, T/C [8]: 35.9% | viability, T/C [27]: 37.3% | viability, T/C [28]: 64.2% | viability, T/C [9]: 101% | viability, T/C [10]: 82.9% | viability, T/C [11]: 49.2% | viability, T/C [12]: 33.8% | viability, T/C [29]: 43.5% | viability, T/C [30]: 52.3% | viability, T/C [13]: 94.1% | viability, T/C [14]: 85.5% | viability, T/C [15]: 54.8% | viability, T/C [16]: 34.5% | viability, T/C [31]: 38.6% | viability, T/C [32]: 54.3% | viability, T/C [17]: 98.3% | viability, T/C [18]: 89.3% | viability, T/C [19]: 55.1% | viability, T/C [20]: 32.1% | viability, T/C [33]: 46.8% | viability, T/C [34]: 56.8% | viability, T/C [21]: 102% | viability, T/C [22]: 78.1% | viability, T/C [23]: 48.8% | viability, T/C [24]: 32.8% | viability, T/C [35]: 51.7% | viability, T/C [36]: 50%

COc1cc(C2c3cc4c(cc3C(OC3OC5COC(C)OC5C(O)C3O)C3COC(=O)C23)OCO4)cc(OC)c1O (stereo unspecified) + COC1C(OC(N)=O)C(O)C(Oc2ccc3c(O)c(NC(=O)c4ccc(O)c(CC=C(C)C)c4)c(=O)oc3c2C)OC1(C)C
IC50 (second compound 0.0316 µM): > 10 µM | IC50 (second compound 0.1 µM): > 10 µM | IC50 (second compound 0.316 µM): > 10 µM | IC50 (second compound 1 µM): > 10 µM | IC50 (second compound 3.16 µM): > 10 µM | IC50 (second compound 10 µM): > 10 µM | viability, T/C [1]: 106% | viability, T/C [2]: 89.3% | viability, T/C [3]: 92.4% | viability, T/C [4]: 82.1% | viability, T/C [25]: 58.6% | viability, T/C [26]: 54.2% | viability, T/C [5]: 104% | viability, T/C [6]: 95.7% | viability, T/C [7]: 100% | viability, T/C [8]: 84% | viability, T/C [27]: 56.8% | viability, T/C [28]: 59.4% | viability, T/C [9]: 95.6% | viability, T/C [10]: 97.8% | viability, T/C [11]: 101% | viability, T/C [12]: 83% | viability, T/C [29]: 55.2% | viability, T/C [30]: 64% | viability, T/C [13]: 106% | viability, T/C [14]: 101% | viability, T/C [15]: 96.6% | viability, T/C [16]: 103% | viability, T/C [31]: 59.7% | viability, T/C [32]: 57.4% | viability, T/C [17]: 110% | viability, T/C [18]: 109% | viability, T/C [19]: 99.9% | viability, T/C [20]: 84.7% | viability, T/C [33]: 67% | viability, T/C [34]: 60.6% | viability, T/C [21]: 107% | viability, T/C [22]: 96.2% | viability, T/C [23]: 103% | viability, T/C [24]: 88.5% | viability, T/C [35]: 65.4% | viability, T/C [36]: 61.4%
